“Also recorded” adds a separate entry of the source. Read-outs that look alike come from different tables or passages of the source.
Legend:
[1] = cited from earlier work; for extrapyramidal side effects (in words): at higher D2 occupancies needed to control psychosis
[2] = system: DA uptake; assay: Inhibition of DA uptake in vitro; format: biochemical
Procedure: Inhibition of DA Uptake in Vitro was determined as described by K. P. B.o slashed.ges.o slashed., J. Med. Chem. 1983, 26, 935-947.

[3] = target: T1, DA D2 receptors (Rattus norvegicus, UniProt P61169); assay: Inhibition of 3H-spiperone binding to DA D2 receptors in rat striatal membranes; conditions: IC50, D2 3H-Spi
T1 construct: DA D2 receptors in rat striatal membranes; from tissue; host or cells: rat striatal membranes
T1 sequence (P61169 whole entry): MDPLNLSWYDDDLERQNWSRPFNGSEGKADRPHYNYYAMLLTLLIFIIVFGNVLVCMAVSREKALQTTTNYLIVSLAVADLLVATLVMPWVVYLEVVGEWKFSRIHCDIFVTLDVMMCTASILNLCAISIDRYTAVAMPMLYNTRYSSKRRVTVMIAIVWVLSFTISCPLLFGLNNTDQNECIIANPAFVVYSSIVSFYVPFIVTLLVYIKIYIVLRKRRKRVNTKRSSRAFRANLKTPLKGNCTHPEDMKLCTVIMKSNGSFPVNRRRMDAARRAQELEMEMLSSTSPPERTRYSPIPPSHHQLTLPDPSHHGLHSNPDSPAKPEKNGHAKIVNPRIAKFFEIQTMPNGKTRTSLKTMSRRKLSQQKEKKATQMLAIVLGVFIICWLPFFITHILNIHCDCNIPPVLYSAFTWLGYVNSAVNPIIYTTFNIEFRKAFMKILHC

[4] = target: T2, DA D1 receptor (Rattus norvegicus, UniProt P18901); assay: biochemical; format: binding; conditions: IC50, D1 3H-SCH
T2 sequence (P18901 whole entry): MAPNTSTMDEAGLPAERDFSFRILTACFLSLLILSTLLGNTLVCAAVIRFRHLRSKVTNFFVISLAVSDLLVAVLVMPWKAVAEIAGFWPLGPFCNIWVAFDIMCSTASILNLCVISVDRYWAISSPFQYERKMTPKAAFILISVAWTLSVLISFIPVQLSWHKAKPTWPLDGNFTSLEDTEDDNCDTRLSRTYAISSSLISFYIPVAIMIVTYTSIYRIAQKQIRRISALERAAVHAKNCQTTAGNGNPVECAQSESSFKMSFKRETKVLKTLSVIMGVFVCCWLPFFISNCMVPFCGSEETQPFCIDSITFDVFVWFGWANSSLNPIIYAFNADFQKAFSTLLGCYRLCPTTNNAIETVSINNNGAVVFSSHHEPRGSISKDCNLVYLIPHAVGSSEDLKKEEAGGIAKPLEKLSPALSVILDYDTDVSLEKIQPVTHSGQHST

[5] = target: T3, 5-HT2 receptors (Rattus norvegicus, UniProt P14842); assay: Inhibition of 3H-ketanserin binding to 5-HT2 receptors in membranes from rat cortex; conditions: Receptor Binding, IC50, 5-HT2 3H-Ket
T3 construct: 5-HT2 receptors in membranes from rat cortex; from tissue; host or cells: membranes from rat cortex
T3 sequence (P14842 whole entry): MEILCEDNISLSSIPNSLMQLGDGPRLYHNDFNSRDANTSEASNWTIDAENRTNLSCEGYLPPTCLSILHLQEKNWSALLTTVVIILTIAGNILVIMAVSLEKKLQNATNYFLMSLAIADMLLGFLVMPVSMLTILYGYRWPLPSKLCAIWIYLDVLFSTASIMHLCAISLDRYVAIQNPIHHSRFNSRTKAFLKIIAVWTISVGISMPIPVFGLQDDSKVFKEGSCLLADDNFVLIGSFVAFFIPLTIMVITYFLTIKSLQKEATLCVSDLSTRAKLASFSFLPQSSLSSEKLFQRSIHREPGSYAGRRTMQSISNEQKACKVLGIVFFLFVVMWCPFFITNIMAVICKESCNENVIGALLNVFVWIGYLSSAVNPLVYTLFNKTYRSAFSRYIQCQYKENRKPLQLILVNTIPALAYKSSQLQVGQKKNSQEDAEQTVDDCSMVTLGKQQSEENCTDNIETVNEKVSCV
Procedure: Receptor binding studies.
5-HT2 receptors. Inhibition of ^3 H-ketanserin binding to 5-HT2 receptors in membranes from rat cortex was determined as described by Hyttel, J. Acta. Pharmacol. Toxicol.

[6] = Cataleptogenic effect in rats; conditions: rat, in vivo, maximum effect 1-6 h after administration, read-out: ED50 in the catalepsy test
Procedure: Cataleptogenic effect in rats.
Catalepsy was measured every hour 1-6 h after test drug administration on a vertical wire grid and defined as being present after at least 15-simmobility. The maximum effect between 1-6 h after administration was reported. A total of 8-12 animals were used per dose.

[7] = target: T2, DA D1 receptor; assay: Antagonism of SK&F 38393-induced circling behavior in rats with unilateral 6-OHDA lesions; format: in vivo; design: circling behavior in rats with unilateral 6-OHDA lesions; from tissue; host or cells: living rats with unilateral 6-OHDA lesions; conditions: 2 h
Procedure: Antagonism of SK&F 38393-induced circling behavior in rats with unilateral 6-OHDA lesions.
This test is a test for the DA D1 receptor antagonistic effect in vivo.
The experiments were performed as described by Arnt, J. and Hyttel, J. J. Neural. Transm. 1986, 67, 225-240. The experiments were done 2-9 months after lesioning when stable contralateral circling response to 2,3,4,5-tetrahydro-7,8-dihydroxy-1-phenyl-1H-3-benzazepine, hydrochloride (SK&F 38393) (4.3 μmol/kg=1.4 mg/kg) were obtained. The test compounds were injected 2 h before administration of SK&F 38393. Antagonistic effect were calculated as percent inhibition of control responses for each rat. Four to eight animals were used per dose.

[8] = system: DA uptake; conditions: cited from earlier work
[9] = Psychopharmacology 1985, 86, 303-305; cited from earlier work
[10] = system: 5-HT2; conditions: cited from earlier work
[11] = system: D1; conditions: 3H-SCH 23390; Drug. Dev. Res. 1988, 15, 389-404; cited from earlier work
[12] = system: DA D1 receptor; conditions: 3H-piflutixol; D2 by 3H-spiperone; Drug. Dev. Res. 1986, 7, 35-47; cited from earlier work
[13] = rat striatal membranes, 3H-SCH 23390, read-out: Receptor Binding
[14] = rat striatal membranes, 3H-spiperone, read-out: Receptor Binding

OCCN1CCN(CCCN2c3ccccc3Sc3ccc(Cl)cc32)CC1 [perphenazine]
extrapyramidal side effects (in words) [1]: accompanied by extrapyramidal side effects

CN1CCN([C@@H]2C[C@@H](c3ccccc3)c3ccc(Cl)cc32)CC1(C)C (racemic) [Compound 10, (±)-Trans-4-[6-chloro-3-phenyl-2,3-dihydro-1H-inden-1-yl]-1,2,2-trimethylpiperazine]
IC50 [2]: 15 nM | IC50 ([3]; Receptor Binding): 20 nM | IC50 [4, 13]: 1.6 nM | IC50 [5]: 3.2 nM

CN1CCN([C@@H]2C[C@@H](c3ccc(F)cc3)c3ccc(F)cc32)CC1(C)C (racemic) [Compound 38, (±)-Trans-4-[6-fluoro-3-(4-fluorophenyl)-2,3-dihydro-1H-inden-1-yl]-1,2,2-trimethyl piperazine]
ED50 [6]: > 68 µmol/kg | IC50 [2]: 9 nM | ED50 [7]: 0.5 µmol/kg | IC50 [3, 14]: 11 nM | IC50 ([4]; Receptor Binding): 0.88 nM | IC50 [5]: 3.6 nM

COC(=O)[C@H]1[C@@H](OC(=O)c2ccccc2)C[C@@H]2CC[C@H]1N2C [cocaine]
DA uptake inhibition (in words) [8]: inhibitor of DA uptake

Cc1nc2sccn2c(=O)c1CCN1CCC(=C(c2ccc(F)cc2)c2ccc(F)cc2)CC1 [ritanserin]
clinical effect (in words) ([1]; patients): shown to be an antidepressant and to improve depressive symptoms of schizophrenia; also recorded: improve the quality of sleep; also recorded: found to relieve neuroleptic-induced parkinsonism | effect in animal test (in words) [9]: exert effects in an animal test reminiscent of anxiolytic activity | 5-HT2 antagonism (in words) [10]: selective 5-HT2 antagonist

Cc1nc2n(c(=O)c1CCN1CCC(C(=O)c3ccc(F)cc3)CC1)CCS2 [setoperone]
5-HT2 antagonism (in words) [10]: 5-HT2 and moderate dopamine receptor antagonist

O=C1NCCN1CCN1CCN([C@@H]2C[C@@H](c3ccc(F)cc3)c3ccccc32)CC1 [Irindalone, reference compound]
D1 affinity (in words) [11]: even lower than the D2 affinity | IC50 ([4]; read-out: Receptor Binding): 890 nM

O=C(CCCN1CCC(O)(c2ccc(Cl)cc2)CC1)c1ccc(F)cc1 [haloperidol]
extrapyramidal side effects (in words) [1]: accompanied by extrapyramidal side effects

CN1CCN([C@@H]2C[C@@H](c3ccc(F)cc3)c3ccc(Cl)cc32)CC1(C)C (single isomer, unassigned) [+2, (+) Trans-4-[6-chloro-3-(4-fluorophenyl)-2,3-dihydro-1H-inden-1-yl]-1,2,2-trimethylpiperazine]
IC50 [2]: 16 nM | IC50 [5]: 2000 nM

OCCN1CCN([C@@H]2C[C@@H](c3ccc(F)cc3)c3ccc(C(F)(F)F)cc32)CC1 (racemic) [Tefludazine]
DA D1 receptor affinity (in words) [12]: substantially lower than the D2 affinity

CC1(C)CN([C@@H]2C[C@@H](c3ccc(F)cc3)c3ccc(Cl)cc32)CCN1 (racemic) [Compound 1, (±)-Trans-4-[6-chloro-3-(4-fluorophenyl)-2,3-dihydro-1H-inden-1-yl]-2,2-dimethylpiperazine]
IC50 [3, 14]: 7.3 nM | IC50 [4, 13]: 2.1 nM | IC50 [5]: 3.2 nM

From patent US5807855A, “1-piperazino-1,2-dihydroindene derivatives” (priority 1992, dated 1998)
